Data: US20090136551A1, “Substituted Dicyanoalkanes For Combating Animal Pests” (BASF AKTIENGESELLSCHAFT, priority 2005, published 2009)

Legend:
[1] = test system: Yellowfever Mosquito (Aedes aegyptii); assay: Activity via glass contact (treated glass vials); type: in vivo; settings: read-out: mortality against yellowfever mosquito
Excerpt: B.7. Activity Against Argentine Ant (Linepithema humile), Harvester Ant (Pogonomyrmex californicus), Acrobat Ant (Crematogaster spp.), Carpenter Ant (Camponotus floridanus), Fire Ant (Solenopsis invicta), House Fly (Musca domestica), Stable Fly (Stomoxys calcitrans), Flesh Fly (Sarcophaga sp.), Yellowfever Mosquito (Aedes aegyptii), House Mosquito (Culex quinquefasciatus), Malaria Mosquito (Anopheles albimanus), German Cockroach (Blattella Germanica), Cat Flea (Ctenocephalides felis), and Brown Dog Tick (Rhipicephalus sanguineus) Via Glass Contact
Glass vials were treated with 0.5 ml of a solution of active ingredient in acetone and allowed to dry. Insects or ticks were placed into each vial together with some food and moisture supply.

[2] = test system: Bird Cherry-Oat Aphid (Rhopalosiphum padi); assay: Activity against bird cherry-oat aphid (sprayed barley leaf disks); type: in vivo; settings: foliar, 120 h
Protocol: B.6. Activity Against Bird Cherry-Oat Aphid Aphid (Rhopalosiphum padi)
The active compounds were formulated in 1:3 DMSO:water. Barley leaf disks were placed into microtiterplates filled with 0.8% agar-agar and 2.5 ppm OPUS™. The leaf disks were sprayed with 2.5 μl of the test solution and 5 to 8 adult aphids were placed into the microtiterplates which were then closed and kept at 19-22° C. and 35-45% under fluorescent light for 5 days. Mortality was assessed on the basis of vital, reproduced aphids. Tests were replicated 2 times.

Structure (SMILES): N#CC(C#N)(CCC(F)(F)F)Cc1cccc2nsnc12 [I.1, 2-benzo[1,2,5]thiadiazol-4-ylmethyl-2-(3,3,3-trifluoropropyl)-malononitrile]
- mortality at 10 ppm [1]: > 75%
- mortality at 300 ppm [2]: > 90%
